The term AC50 denotes the midpoint of the concentration-response curve, whichever way the signal moves.

For data set [1], the target named is T1, Corticotropin-releasing factor receptor 2/Corticotropin-releasing factor-binding protein (Homo sapiens, UniProt P24387+Q13324).
T1 sequence (Q13324 whole entry): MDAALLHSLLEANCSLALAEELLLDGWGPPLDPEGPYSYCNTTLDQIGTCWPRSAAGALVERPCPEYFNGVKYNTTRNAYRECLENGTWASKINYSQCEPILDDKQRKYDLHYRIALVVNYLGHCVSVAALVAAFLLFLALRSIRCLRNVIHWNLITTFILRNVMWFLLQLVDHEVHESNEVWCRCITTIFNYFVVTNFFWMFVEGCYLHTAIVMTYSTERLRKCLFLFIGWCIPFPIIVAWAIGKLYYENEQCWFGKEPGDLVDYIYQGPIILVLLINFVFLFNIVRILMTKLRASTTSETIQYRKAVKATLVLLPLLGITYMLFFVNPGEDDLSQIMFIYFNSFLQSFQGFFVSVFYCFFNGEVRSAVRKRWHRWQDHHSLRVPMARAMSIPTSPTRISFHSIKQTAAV
T1 sequence (P24387 whole entry): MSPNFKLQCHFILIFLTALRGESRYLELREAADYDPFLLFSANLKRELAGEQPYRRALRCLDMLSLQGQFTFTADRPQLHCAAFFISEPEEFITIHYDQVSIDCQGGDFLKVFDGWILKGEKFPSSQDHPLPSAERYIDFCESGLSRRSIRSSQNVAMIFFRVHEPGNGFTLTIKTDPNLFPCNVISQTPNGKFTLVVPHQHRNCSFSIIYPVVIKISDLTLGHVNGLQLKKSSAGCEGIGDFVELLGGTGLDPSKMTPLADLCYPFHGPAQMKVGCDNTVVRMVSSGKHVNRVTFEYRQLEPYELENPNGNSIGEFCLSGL
Kind of data set: Dose Response confirmation of uHTS hits for small molecule antagonists of the CRF-binding protein and CRF-R2 receptor complex. Format: functional. The note with it: read-out: IC50_Mean.

The target of data set [2] is T1, Corticotropin-releasing factor receptor 2/Corticotropin-releasing factor-binding protein. Kind of data set: activators of CRF receptor 2 with binding protein – uHTS hits, confirmation (AID 602473). The data set is classed as functional. The settings on record: read-out: EC50_Mean.
The next data set has as its system H4. Kind of data set: Luminescence Cell-Based Dose Response HTS to Identify Activators of 5'UTR Stem-Loop Driven Prion Protein mRNA Translation in H4 Neuroglioblastoma Cells. [Related pubchem assays: 1829 (Project Summary), 1814 (Primary HTS)]. The data set is classed as functional. The settings on record: Homo sapiens.
Data set [3] in a line: Luminescence Cell-Based Dose Confirmation HTS to Identify Activators of 5'UTR Stem-Loop Driven Alpha-Synuclein mRNA Translation in H4 Neuroglioblastoma Cells. [Related pubchem assays: 1829 (Project Summary), 1814 (Primary HTS)]. The data set is classed as functional.
Data set [4] in a line: Luminescence Cell-Based Dose Response HTS to Identify Activators of Luciferase Translation or Activity in H4 […] Cells. [Related pubchem assays: 1829 (Project Summary), 1814 (Primary HTS)]. Format: functional.
Data set [5] concerns the target T2, RNA-binding protein pos-1 (Caenorhabditis elegans, UniProt G5EF15).
T2 sequence (G5EF15 whole entry): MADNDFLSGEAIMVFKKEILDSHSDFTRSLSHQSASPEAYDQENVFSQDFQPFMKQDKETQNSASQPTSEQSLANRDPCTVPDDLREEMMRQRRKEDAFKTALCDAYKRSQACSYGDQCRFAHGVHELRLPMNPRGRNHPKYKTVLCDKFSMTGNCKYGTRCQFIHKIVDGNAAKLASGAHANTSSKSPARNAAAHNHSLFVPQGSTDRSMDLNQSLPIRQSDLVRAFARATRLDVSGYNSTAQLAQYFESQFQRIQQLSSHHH
Kind of data set: disruptors of C. elegans POS-1 RNA interaction – biochemical, fluorescence polarization, dose response (AID 1964).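 Also: purified POS-1 fused to maltose binding protein made in E. coli; potency of compounds blocking POS-1 binding to fluorescent RNA.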

Data set [6] addresses T3, Zinc finger protein mex-5 (Caenorhabditis elegans, UniProt Q9XUB2).
T3 sequence (Q9XUB2 whole entry): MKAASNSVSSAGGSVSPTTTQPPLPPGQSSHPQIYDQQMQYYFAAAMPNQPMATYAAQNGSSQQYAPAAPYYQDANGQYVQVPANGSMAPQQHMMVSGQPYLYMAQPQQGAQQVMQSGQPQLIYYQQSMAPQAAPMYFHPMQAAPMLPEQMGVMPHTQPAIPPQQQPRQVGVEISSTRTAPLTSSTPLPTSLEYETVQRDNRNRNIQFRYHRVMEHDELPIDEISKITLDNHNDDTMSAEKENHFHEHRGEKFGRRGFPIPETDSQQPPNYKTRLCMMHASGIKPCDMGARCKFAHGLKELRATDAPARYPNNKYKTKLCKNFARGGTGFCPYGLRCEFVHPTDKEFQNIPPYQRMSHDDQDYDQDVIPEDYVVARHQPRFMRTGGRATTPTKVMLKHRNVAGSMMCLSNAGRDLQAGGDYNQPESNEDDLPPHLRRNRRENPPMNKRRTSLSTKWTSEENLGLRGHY
The experiment in a line: potency of MEX-5 RNA-binding blockers – biochemical, C. elegans, fluorescence polarization, dose response (AID 1960). (In general: Fluorescence polarisation rises when a labelled molecule tumbles more slowly, as on binding a larger partner.)

A further data set has as its target Cytochrome P450 2C9 (Homo sapiens, UniProt P11712).
The target of a further data set is Cytochrome P450 2C19 (Homo sapiens, UniProt P33261). The experiment in a line: Cytochrome panel assay with activity outcomes. Panel member name: p450-cyp2c19 Compounds with AC50 equal or less than 10 uM are considered active. Format: functional.
Cytochrome P450 2C19, sequence (P33261 whole entry): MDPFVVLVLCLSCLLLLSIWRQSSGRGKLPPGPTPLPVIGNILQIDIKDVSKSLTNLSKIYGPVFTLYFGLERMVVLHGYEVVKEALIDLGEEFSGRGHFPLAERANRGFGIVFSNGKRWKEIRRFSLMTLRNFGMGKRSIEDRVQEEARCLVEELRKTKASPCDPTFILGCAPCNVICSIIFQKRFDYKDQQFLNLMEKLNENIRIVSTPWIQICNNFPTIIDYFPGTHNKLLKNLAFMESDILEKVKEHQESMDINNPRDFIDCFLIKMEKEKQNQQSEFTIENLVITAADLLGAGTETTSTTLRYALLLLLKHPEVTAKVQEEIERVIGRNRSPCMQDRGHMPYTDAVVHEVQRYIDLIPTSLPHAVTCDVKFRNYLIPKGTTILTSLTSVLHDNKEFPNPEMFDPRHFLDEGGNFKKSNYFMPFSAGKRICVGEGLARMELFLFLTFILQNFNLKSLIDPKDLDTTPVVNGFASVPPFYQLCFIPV
In a further data set the test system is H9c2. The experiment in a line: cells. The note with it: Rattus norvegicus, H9c2, Myocardium. Format: functional, cell-based.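 Also: confirmatory concentration-response retest of ultra-high-throughput screening hits for modulation of myocardial damage; cell death induced by hydrogen peroxide oxidative stress; compound pretreatment for 60 min then peroxide exposure for 2 h; potency is for protecting the cells against peroxide damage rather than for killing them.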
In the next data set the target is T4, Cytochrome P450 1A2 (Homo sapiens, UniProt P05177).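 Also: PubChem cytochrome P450 panel assay, CYP1A2 panel member.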
T4 sequence (P05177 whole entry): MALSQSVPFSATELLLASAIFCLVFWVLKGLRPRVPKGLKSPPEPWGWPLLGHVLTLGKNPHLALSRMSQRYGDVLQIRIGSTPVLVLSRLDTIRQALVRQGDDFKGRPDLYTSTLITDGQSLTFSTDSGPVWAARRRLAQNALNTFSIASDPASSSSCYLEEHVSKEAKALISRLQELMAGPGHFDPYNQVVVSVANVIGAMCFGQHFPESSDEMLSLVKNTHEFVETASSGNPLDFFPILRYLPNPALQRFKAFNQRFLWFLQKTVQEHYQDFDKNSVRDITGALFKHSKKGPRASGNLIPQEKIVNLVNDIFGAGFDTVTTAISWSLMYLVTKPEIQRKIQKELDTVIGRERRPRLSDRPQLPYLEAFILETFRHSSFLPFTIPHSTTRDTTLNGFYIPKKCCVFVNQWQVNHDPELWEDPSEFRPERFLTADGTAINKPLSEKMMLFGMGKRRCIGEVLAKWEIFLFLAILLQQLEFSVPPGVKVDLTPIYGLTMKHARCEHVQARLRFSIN

Structures are written as SMILES. Calls of active or inactive are those of the source.

Cytochrome P450 2C9, sequence (P11712 whole entry): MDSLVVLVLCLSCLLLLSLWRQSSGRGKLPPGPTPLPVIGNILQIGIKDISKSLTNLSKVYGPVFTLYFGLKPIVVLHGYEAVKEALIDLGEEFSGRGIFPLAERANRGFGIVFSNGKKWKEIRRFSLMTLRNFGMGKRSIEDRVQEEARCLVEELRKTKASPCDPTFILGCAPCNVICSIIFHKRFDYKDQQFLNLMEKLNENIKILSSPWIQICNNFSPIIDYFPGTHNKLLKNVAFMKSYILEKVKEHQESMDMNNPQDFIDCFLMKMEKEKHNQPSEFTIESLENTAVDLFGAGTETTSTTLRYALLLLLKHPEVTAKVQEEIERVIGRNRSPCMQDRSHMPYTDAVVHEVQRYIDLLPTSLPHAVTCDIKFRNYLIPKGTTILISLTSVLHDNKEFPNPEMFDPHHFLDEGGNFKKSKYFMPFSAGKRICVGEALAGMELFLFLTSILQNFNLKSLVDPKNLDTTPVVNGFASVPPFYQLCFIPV

For the molecule `CC(N=C1NS(=O)(=O)c2ccccc21)C(=O)N1CCc2ccccc2C1` (configuration not stated), in [1], the IC50 was > 47.1 µM (inactive). Also, in data set [2], the EC50 was > 53 µM (inactive).
Turning to `COC(=O)c1ccc(C2OCC(C)(C)CO2)cc1`, the EC50 is 24.9 µM (active) in the data set with H4, > 120 µM (not active) in data set [3] and 35.1 µM (active) in data set [4].
On to `Cc1ccc(S(=O)(=O)NN=C(S)Nc2cccc(F)c2)cc1`, for which, in data set [1], the IC50 is > 47.1 µM (inactive). In addition, in data set [2], the EC50 is > 53 µM (inactive).
Regarding `CSc1ccccc1NC(=O)c1cc(-c2cccs2)on1`, the EC50 is 17.9 µM (active) in the data set with H4, 55.7 µM (active) in [3] and > 120 µM (not active) in data set [4].
As for `CC(=O)c1ccc(N(C(=O)Cn2nnc3ccccc32)C(C(=O)NCc2ccccc2)c2ccccn2)cc1` (configuration not stated), the EC50 is > 120 µM (not active) in the data set with H4, > 120 µM (not active) in data set [3] and 8.14 µM (active) in data set [4].
Consider `CC(C)OC(=O)CC(=O)c1sc2nc3c(cc2c1N)CN(C)CC3`, for which the EC50 in data set [5] is > 300 µM (not active); in data set [6], 19.3 µM (inconclusive).
As for `Cc1ccc(Oc2nn[nH]n2)cc1`, the AC50 at Cytochrome P450 2C9 was 7.08 µM (inconclusive); on Cytochrome P450 2C19, “inconclusive”. Further, the EC50 (in the data set on H4; in data set [3]; in [4]) was > 120 µM (not active) each time.
For `COC(=O)c1ccc(C)c(-n2c(C)cc(C=O)c2C)c1`, the EC50 in data set [5] and in data set [6] was > 300 µM (not active) each time.
Take `Cc1cc(NC(=O)CSc2nc3c(C)cccc3cc2C#N)no1`: the results for the EC50 (in the data set on H4; in data set [3]; in data set [4]) were 16.1 µM (active), 47.9 µM (active) and > 120 µM (not active), respectively.
As to `COC/C=C/C1=CC2=CC(=O)C(C)(OC(=O)c3cccs3)C(=O)C2=CO1` (configuration not stated), the EC50 in [5] was > 300 µM (not active); in data set [6], 51.8 µM (active).
`Cc1cc(NC(=O)Cn2nc3c(cc2=O)CCCC3)ccc1Br`: the IC50 in data set [1] was > 47.1 µM (inactive). Also, the EC50 in data set [2] was > 53 µM (inactive).
The matching figures for `COc1ccc(N2CCN(CCCNC(=O)CN3CCN(Cc4ccccc4C)C3=O)CC2)cc1`: > 47.1 µM (inactive) and > 53 µM (inactive).
Regarding `Clc1ccc(-c2csc(N3CCC(c4ccccc4)C3)n2)cc1` (configuration not stated), the figures for the EC50 (in the data set on H4; in data set [3]; in data set [4]) were 31.5 µM (active), 18.5 µM (active) and 25.7 µM (active), respectively.
In the case of `Nn1c(SCc2ccccc2)nnc1C1CCCCC1`, the values for the EC50 (with H4; in data set [3]; in [4]) were 21 µM (active), 25.5 µM (active) and 10.6 µM (active), respectively.
Turning to `O=C(CSCc1cccc(F)c1)N1CCN(c2ccccc2)CC1`, the figures for the EC50 (with H4; in data set [3]; in data set [4]) were > 120 µM (not active), 0.47 µM (active) and 6.73 µM (active), respectively.
Take `Cc1ccc(N/C=C(/C#N)c2ccsc2)cc1`: the EC50 with H4 is 68.4 µM (active); in data set [3] it was 46.7 µM (active); in data set [4], 52.3 µM (active).
As for `Cc1ccc(-c2ccccc2)n1-c1cccc(C(=O)O)c1`, the EC50 is 109 µM (active) in [5] and > 300 µM (not active) in data set [6].
Consider `Cc1nc2ccccc2c2c(N)c3ccccc3n12`, for which the IC50 with H9c2 was 21.6 µM (active).
For the molecule `O=[N+]([O-])c1ccccc1S(=O)(=O)n1nnc2ccccc21`, the EC50 in [5] and in [6] was > 300 µM (not active) in each case.
With `CCOC(=O)[C@@]1(C#N)C(c2ccc(Cl)c(Cl)c2)[C@H](C(N)=O)N2C=C(C(C)=O)C=C[C@H]21` (some centres not stated), the EC50 in [5] is 55.7 µM (inconclusive); in [6], 24 µM (inconclusive).
The matching figures for `COc1ccc(CNC(=O)COC(=O)c2cc(-c3ccc(Cl)s3)nc3ccccc23)cc1`: 92.1 µM (active) and 58.6 µM (active).
`CC(C)c1ccc(C2C(C#N)=C(N)N3C(=C2C#N)Sc2ccccc23)cc1` (configuration not stated): the AC50 on Cytochrome P450 2C9 is 10 µM (inconclusive); on Cytochrome P450 1A2 it was 25.1 µM (inconclusive); on Cytochrome P450 2C19 (read-out: AC50), 14.1 µM (inconclusive). Also, the EC50 in data set [5] was 33 µM (inconclusive); in data set [6] it was 61.3 µM (active).
For the molecule `COC(=O)C1CSc2[nH]c(=O)sc2C1c1ccc(O)c(OC)c1` (configuration not stated), the IC50 in [1] is > 47.1 µM (inactive). For the same molecule, in data set [2], the EC50 is > 53 µM (inactive).
Turning to `COc1cc(C2C(C#N)=C(N)OC3=C2C(=O)CCC3)ccc1OC(=O)N1CCOCC1` (configuration not stated), the EC50 in data set [5] and in [6] was > 300 µM (not active) throughout.
Consider `N#CC(c1nc2ccccc2nc1OCCO)S(=O)(=O)c1ccccc1` (configuration not stated), for which the EC50 in data set [5] is > 300 µM (not active); in data set [6], 142 µM (inconclusive).
For `Nc1c(C(=O)N2CCCCCC2)oc2ccccc12`, the IC50 in data set [1] was > 47.1 µM (inactive). In addition, in [2], the EC50 is > 53 µM (inactive).
For the molecule `CN(Cc1ccccc1)C(=O)c1cccc(NC(=O)Cc2ccc(NC(=O)C3CCCN(C(=O)CCc4ccccc4)C3)cc2)c1` (configuration not stated), in data set [1], the IC50 is > 47.1 µM (inactive). The EC50 in [2] is > 53 µM (inactive).
As to `CC1=CC(C)(C(Cl)(Cl)Cl)C(C)=CC1=NO` (configuration not stated), in data set [1], the IC50 was > 47.1 µM (inactive). The EC50 in data set [2] is > 53 µM (inactive).
In the case of `Cc1ccccc1N(CC(=O)N1CCN(Cc2ccccc2)CC1)S(C)(=O)=O`, in data set [1], the IC50 is > 47.1 µM (inactive). Further, in [2], the EC50 is > 53 µM (inactive).
Regarding `C/C(=N/C1CC1)C1=C(O)c2ccccc2C1=O`, the values for the EC50 (in the data set on H4; in [3]; in [4]) were 6.75 µM (active), > 120 µM (not active) and 20.2 µM (active), respectively.
The matching figures for `O=[N+]([O-])c1cccc(/N=C/C=C(/O)c2ccco2)c1`: > 120 µM (not active), 1.14 µM (active) and 17 µM (active).

Source of the values: ChEMBL document CHEMBL1201862, “PubChem BioAssay data set” (2004).
